From the supplement of paper PMC8612539
Values after ≈ are worked out from the molar mass of the structure shown.

Tested on: Histophilus somni
Assay: minimum inhibitory concentration (MIC)
Method: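 Broth microdilution MIC (Sensititre BOPO7F bovine plate, CLSI methods) of 19 antimicrobials against field isolates of P. multocida, M. haemolytica, H. somni (deep nasopharyngeal swabs) and E. coli, Enterococcus spp. (rectal swabs) from weaned dairy heifers. Incubation 16-24 h at 35 C. MIC is the lowest concentration preventing visible growth. Values with <= or > lie at the tested range limits. Trimethoprim-sulfamethoxazole is given as the trimethoprim component of a 1:19 mixture.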

CS(=O)(=O)c1ccc([C@@H](O)[C@@H](CF)NC(=O)C(Cl)Cl)cc1 [Florfenicol]
Conditions	minimum inhibitory concentration [µg/mL]
isolate (source animal id): 3	≤ 0.25
isolate (source animal id): 4	1 (≈ 2.79 µM)
isolate (source animal id): 7	1 (≈ 2.79 µM)
isolate (source animal id): 14	1 (≈ 2.79 µM)
isolate (source animal id): 15	≤ 0.25
isolate (source animal id): 17	1 (≈ 2.79 µM)
isolate (source animal id): 18	≤ 0.25
isolate (source animal id): 20	1 (≈ 2.79 µM)
isolate (source animal id): 23	≤ 0.25
isolate (source animal id): 45	1 (≈ 2.79 µM)
isolate (source animal id): 53	1 (≈ 2.79 µM)
isolate (source animal id): 83	0.5 (≈ 1.4 µM)
isolate (source animal id): 88	0.5 (≈ 1.4 µM)
isolate (source animal id): 92	0.5 (≈ 1.4 µM)
isolate (source animal id): 93	≤ 0.25
isolate (source animal id): 99	0.5 (≈ 1.4 µM)
isolate (source animal id): 100	0.5 (≈ 1.4 µM)
isolate (source animal id): 105	0.5 (≈ 1.4 µM)
isolate (source animal id): 107	0.5 (≈ 1.4 µM)
isolate (source animal id): 108	1 (≈ 2.79 µM)
isolate (source animal id): 109	0.5 (≈ 1.4 µM)
isolate (source animal id): 110	0.5 (≈ 1.4 µM)
isolate (source animal id): 117	0.5 (≈ 1.4 µM)
isolate (source animal id): 121	0.5 (≈ 1.4 µM)
isolate (source animal id): 123	≤ 0.25
isolate (source animal id): 124	≤ 0.25
isolate (source animal id): 127	≤ 0.25
isolate (source animal id): 128	0.5 (≈ 1.4 µM)
isolate (source animal id): 130	1 (≈ 2.79 µM)
isolate (source animal id): 132	0.5 (≈ 1.4 µM)
isolate (source animal id): 135	0.5 (≈ 1.4 µM)
isolate (source animal id): 140	0.5 (≈ 1.4 µM)
isolate (source animal id): 141	≤ 0.25
isolate (source animal id): 142	1 (≈ 2.79 µM)
isolate (source animal id): 144	≤ 0.25
isolate (source animal id): 146	0.5 (≈ 1.4 µM)
isolate (source animal id): 147	1 (≈ 2.79 µM)
isolate (source animal id): 151	0.5 (≈ 1.4 µM)
isolate (source animal id): 153	≤ 0.25
isolate (source animal id): 154	1 (≈ 2.79 µM)
isolate (source animal id): 156	1 (≈ 2.79 µM)
isolate (source animal id): 157	≤ 0.25
isolate (source animal id): 176	≤ 0.25
isolate (source animal id): 183	≤ 0.25
isolate (source animal id): 186	≤ 0.25
isolate (source animal id): 196	≤ 0.25
isolate (source animal id): 198	≤ 0.25
isolate (source animal id): 200	≤ 0.25
isolate (source animal id): 206	≤ 0.25
isolate (source animal id): 208	≤ 0.25
isolate (source animal id): 210	≤ 0.25
isolate (source animal id): 212	≤ 0.25
isolate (source animal id): 215	≤ 0.25
isolate (source animal id): 216	≤ 0.25
isolate (source animal id): 218	≤ 0.25
isolate (source animal id): 219	≤ 0.25
isolate (source animal id): 224	≤ 0.25
isolate (source animal id): 228	≤ 0.25
isolate (source animal id): 230	≤ 0.25
isolate (source animal id): 233	1 (≈ 2.79 µM)
isolate (source animal id): 238	≤ 0.25
isolate (source animal id): 239	1 (≈ 2.79 µM)
isolate (source animal id): 241	≤ 0.25
isolate (source animal id): 242	≤ 0.25
isolate (source animal id): 243	≤ 0.25
isolate (source animal id): 245	1 (≈ 2.79 µM)
isolate (source animal id): 246	≤ 0.25
isolate (source animal id): 247	≤ 0.25
isolate (source animal id): 248	≤ 0.25
isolate (source animal id): 250	≤ 0.25
isolate (source animal id): 251	≤ 0.25
isolate (source animal id): 252	≤ 0.25
isolate (source animal id): 254	≤ 0.25
isolate (source animal id): 258	≤ 0.25
isolate (source animal id): 259	≤ 0.25
isolate (source animal id): 262	1 (≈ 2.79 µM)
isolate (source animal id): 264	≤ 0.25
isolate (source animal id): 265	≤ 0.25
isolate (source animal id): 266	≤ 0.25
isolate (source animal id): 267	≤ 0.25
isolate (source animal id): 269	≤ 0.25
isolate (source animal id): 271	≤ 0.25
isolate (source animal id): 272	≤ 0.25
isolate (source animal id): 274	1 (≈ 2.79 µM)
isolate (source animal id): 276	≤ 0.25
isolate (source animal id): 278	≤ 0.25
isolate (source animal id): 280	≤ 0.25
isolate (source animal id): 281	≤ 0.25
isolate (source animal id): 283	≤ 0.25
isolate (source animal id): 288	≤ 0.25
isolate (source animal id): 291	0.5 (≈ 1.4 µM)
isolate (source animal id): 292	≤ 0.25
isolate (source animal id): 296	≤ 0.25
isolate (source animal id): 306	≤ 0.25
isolate (source animal id): 336	≤ 0.25
isolate (source animal id): 337	≤ 0.25
isolate (source animal id): 341	≤ 0.25

CCCN1C[C@H](C)[C@@H](O)[C@](C)(O)[C@@H](CC)OC(=O)[C@H](C)[C@@H](O[C@H]2C[C@@](C)(OC)[C@@H](O)[C@H](C)O2)[C@H](C)[C@@H](O[C@@H]2O[C@H](C)C[C@H](N(C)C)[C@H]2O)[C@](C)(O)C[C@H]1C [Gamithromycin]
Conditions	minimum inhibitory concentration [µg/mL]
isolate (source animal id): 3	≤ 1
isolate (source animal id): 4	≤ 1
isolate (source animal id): 7	≤ 1
isolate (source animal id): 14	≤ 1
isolate (source animal id): 15	≤ 1
isolate (source animal id): 17	≤ 1
isolate (source animal id): 18	≤ 1
isolate (source animal id): 20	≤ 1
isolate (source animal id): 23	≤ 1
isolate (source animal id): 45	≤ 1
isolate (source animal id): 53	≤ 1
isolate (source animal id): 83	≤ 1
isolate (source animal id): 88	≤ 1
isolate (source animal id): 92	≤ 1
isolate (source animal id): 93	≤ 1
isolate (source animal id): 99	≤ 1
isolate (source animal id): 100	≤ 1
isolate (source animal id): 105	≤ 1
isolate (source animal id): 107	≤ 1
isolate (source animal id): 108	≤ 1
isolate (source animal id): 109	≤ 1
isolate (source animal id): 110	≤ 1
isolate (source animal id): 117	≤ 1
isolate (source animal id): 121	≤ 1
isolate (source animal id): 123	≤ 1
isolate (source animal id): 124	≤ 1
isolate (source animal id): 127	≤ 1
isolate (source animal id): 128	≤ 1
isolate (source animal id): 130	4 (≈ 5.15 µM)
isolate (source animal id): 132	≤ 1
isolate (source animal id): 135	≤ 1
isolate (source animal id): 140	≤ 1
isolate (source animal id): 141	≤ 1
isolate (source animal id): 142	> 8
isolate (source animal id): 144	≤ 1
isolate (source animal id): 146	4 (≈ 5.15 µM)
isolate (source animal id): 147	> 8
isolate (source animal id): 151	≤ 1
isolate (source animal id): 153	≤ 1
isolate (source animal id): 154	> 8
isolate (source animal id): 156	> 8
isolate (source animal id): 157	≤ 1
isolate (source animal id): 176	≤ 1
isolate (source animal id): 183	≤ 1
isolate (source animal id): 186	≤ 1
isolate (source animal id): 196	≤ 1
isolate (source animal id): 198	≤ 1
isolate (source animal id): 200	≤ 1
isolate (source animal id): 206	≤ 1
isolate (source animal id): 208	≤ 1
isolate (source animal id): 210	≤ 1
isolate (source animal id): 212	≤ 1
isolate (source animal id): 215	≤ 1
isolate (source animal id): 216	≤ 1
isolate (source animal id): 218	≤ 1
isolate (source animal id): 219	≤ 1
isolate (source animal id): 224	≤ 1
isolate (source animal id): 228	≤ 1
isolate (source animal id): 230	≤ 1
isolate (source animal id): 233	≤ 1
isolate (source animal id): 238	≤ 1
isolate (source animal id): 239	≤ 1
isolate (source animal id): 241	≤ 1
isolate (source animal id): 242	≤ 1
isolate (source animal id): 243	≤ 1
isolate (source animal id): 245	≤ 1
isolate (source animal id): 246	≤ 1
isolate (source animal id): 247	≤ 1
isolate (source animal id): 248	≤ 1
isolate (source animal id): 250	≤ 1
isolate (source animal id): 251	≤ 1
isolate (source animal id): 252	≤ 1
isolate (source animal id): 254	≤ 1
isolate (source animal id): 258	≤ 1
isolate (source animal id): 259	≤ 1
isolate (source animal id): 262	≤ 1
isolate (source animal id): 264	≤ 1
isolate (source animal id): 265	≤ 1
isolate (source animal id): 266	≤ 1
isolate (source animal id): 267	≤ 1
isolate (source animal id): 269	≤ 1
isolate (source animal id): 271	≤ 1
isolate (source animal id): 272	≤ 1
isolate (source animal id): 274	≤ 1
isolate (source animal id): 276	≤ 1
isolate (source animal id): 278	≤ 1
isolate (source animal id): 280	≤ 1
isolate (source animal id): 281	≤ 1
isolate (source animal id): 283	≤ 1
isolate (source animal id): 288	≤ 1
isolate (source animal id): 291	≤ 1
isolate (source animal id): 292	≤ 1
isolate (source animal id): 296	≤ 1
isolate (source animal id): 306	≤ 1
isolate (source animal id): 336	≤ 1
isolate (source animal id): 337	≤ 1
isolate (source animal id): 341	≤ 1
